Measured values: PMC3648344 (BMC Structural Biology, 2013)

Molecular target: T1, ypMnmC (Yersinia pestis, UniProt Q8ZD36)
T1 construct: gene mnmC
Details: selenomethionyl protein; co-purified FAD, none added; MnmC1 domain site; also in 3SGL with SAM

T1 sequence (Q8ZD36 whole entry, looked up): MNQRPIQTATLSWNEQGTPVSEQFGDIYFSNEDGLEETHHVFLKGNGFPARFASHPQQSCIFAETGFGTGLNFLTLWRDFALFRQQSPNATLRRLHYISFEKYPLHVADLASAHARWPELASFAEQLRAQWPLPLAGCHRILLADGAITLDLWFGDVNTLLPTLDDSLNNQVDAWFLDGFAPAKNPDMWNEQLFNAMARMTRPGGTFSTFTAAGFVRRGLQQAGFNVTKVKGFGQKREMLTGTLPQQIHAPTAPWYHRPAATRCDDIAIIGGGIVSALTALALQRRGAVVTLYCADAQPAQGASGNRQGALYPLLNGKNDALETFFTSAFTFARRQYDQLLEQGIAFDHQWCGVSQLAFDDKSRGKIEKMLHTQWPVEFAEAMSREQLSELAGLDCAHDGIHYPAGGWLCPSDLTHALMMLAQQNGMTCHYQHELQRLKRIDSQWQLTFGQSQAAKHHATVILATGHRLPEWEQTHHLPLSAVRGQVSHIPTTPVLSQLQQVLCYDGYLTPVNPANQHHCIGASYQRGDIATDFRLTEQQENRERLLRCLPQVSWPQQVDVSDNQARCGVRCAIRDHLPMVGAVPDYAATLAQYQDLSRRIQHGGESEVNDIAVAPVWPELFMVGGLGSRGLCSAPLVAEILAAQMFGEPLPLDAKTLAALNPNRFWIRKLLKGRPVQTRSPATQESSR

Cc1cc2nc3c(=O)[nH]c(=O)nc-3n(C[C@H](O)[C@H](O)[C@H](O)COP(=O)(O)OP(=O)(O)OC[C@H]3O[C@@H](n4cnc5c(N)ncnc54)[C@H](O)[C@@H]3O)c2cc1C [FAD]
X-ray crystal structure, 2.30 Å: All three MnmC structures unambiguously exhibited bound FAD (Figure 4A)
